Results from US10532085B2, “Methods for increasing intracellular activity of Hsp70” (Orphazyme A/S, priority 2010, dated 2020).

How the values were obtained:
[1] = test system: primary fibroblasts from Mucopolysaccharidosis type IIIA patient; assay: Lysosomal cross-sectional area, laser confocal microscopy, MPS IIIA fibroblasts; type: cell-based, human; conditions: Alexa Fluor 488 labelled, added for 48 h; GM00879
Experimental: FIG. 8: Test of rhHSP70 in non-sphingolipidosis. rhHSP70 labelled with Alexa Fluor 488 (for visualization of uptake) was added for 48 h to primary fibroblasts from Mucopolysaccharidosis type IIIA (aka Sanfilippo type IIIA) patient (Coriell Cell Repository ID: GM00879). Read-out: lysosomal cross-sectional area (Primary cellular pathology), performed by laser confocal microscopy.

[2] = test system: primary fibroblasts from Sandhoff Disease patients; assay: Volume of Acidic Compartment (VAC) by FACS, Sandhoff fibroblasts; type: cell-based, human; conditions: added for 48 h, Sandhoff GM11098
Experimental: FIG. 10: Test of rhHSP70 in non-sphingolipidosis. rhHSP70 was added for 48 h to primary fibroblasts from Sandhoff Disease and Mucopolysaccharidosis type IIIA (aka Sanfilippo type IIIA) patients (Coriell Cell Repository ID: Sandhoff: GM11098, MPSIIIA: GM00879). Ctrl=Normal Control fibroblasts. Read-out: Volume of Acidic Compartment (VAC) (Primary cellular pathology), performed by FACS.

MCF-7-LC3-EGFP cells = assay: Autophagy induction (LC3-EGFP translocation); type: cell-based, human; conditions: 20 μg/mL added to culture medium
Excerpt: FIG. 11: rhHSP70 induces autophagy in MCF-7-LC3-EGFP cells.

U-2-OS cells = assay: Lysosomal integrity upon photo-oxidation (acridine orange and blue light); type: cell-based, Human
Experimental: FIG. 2: Lysosomal Hsp70 stabilizes lysosomal membranes. (a) Representative confocal images of U-2-OS cells incubated with 300 nM rHsp70-AF488 (green) for 24 h, fixed and stained for lysosomal integral membrane protein-1 (LIMP-1; red). For co-localization with other organelle markers see FIG. 3. (b) U-2-OS cells were incubated with 300 nM rHsp70-AF488 for 24 h before quantification of rHsp70-AF488 in membranes (memb.) and supernatant (sup.) obtained by repeated freeze/thaw cycles and centrifugation the light membrane fraction (LMF). […] (c) Representative still images of U-2-OS cells exposed to photo-oxidation (acridine orange and blue light). The loss of lysosomal integrity is visualized by the loss of red and increase in green staining. (d and e) U-2-OS cells were incubated with indicated recombinant proteins (300 nM) for 24 h, and analyzed for lysosomal integrity upon photo-oxidation. When indicated, cells were treated with indicated siRNAs for 48 h prior to the addition of recombinant proteins (e). The values represent means±SD (standard deviation) for three (d) or five (e) independent experiments. Representative immunoblots of indicated proteins from U-2-OS cells left untreated or treated with control or Hsp70 siRNAs are shown on the right. Scale bars: 20 μm (a and c).
WT- and Hsp70-MEFs were generated, immortalized and maintained as described in the art. Human NPDA fibroblasts (83/24) originate from a skin biopsy of a patient with hepatosplenomegaly. Recombinant proteins were generated using the pET-16b vector system and Ni^2+-affinity-purification (Novagen), and labeled with Alexa Fluor 488 according to manufacturers protocol (Molecular Probes). To analyze the lysosomal integrity, we developed a real time imaging method of cells stained with acridine orange, a metachromatic weak base that accumulates in the acidic compartment of the cells staining them red and sensitizing them to photo-oxidation. The photo-oxidation-induced loss of the lysosomal pH-gradient and leakage of acridine orange to the cytosol from individual lysosomes was quantified visually as “loss of red dots” in U2-O—S cells and as a decrease in red and an increase in green fluorescence by Zeiss LSM DUO Software in fibroblasts. The total and cytoplasmic (digitonin-extracted) cathepsin activities were measured in digitonin-treated samples using zFR-AFC (Enzyme System Products) probe as described in the art. The tryptophan fluorescence spectra and liposome 90° light scattering were analyzed in a HEPES buffer (20 mM HEPES, 0.1 mM EDTA, pH as indicated) essentially as described in the art. Surface plasmon resonance measurements were performed with immobilized LUVs using a BIAcore 2000 system as described in the art. Hsp70 siRNA (5′-[…]-3′) and a […] were transfected with Oligofectamine (Invitrogen). Immunodetection was performed with standard protocols. Apoptosis-like cell death and lysosomal membrane permeabilization were analyzed essentially as described in the art. ASM activity was analyzed by Amplex Red Sphingomyelinase Assay Kit (A12220) from Molecular Probes with modifications described in the art. Statistical analysis was performed using a two-tailed, paired Student's T-test and all groups of data were tested for the comparability of their variances using an F-test.
Sub-confluent cells incubated with 2 μg/ml acridine orange for 15 min at 37° C. were washed, irradiated and analyzed in Hanks balanced salt solution complemented with 3% fetal calf serum. Cells for single cell imaging were selected from 8 pre-defined areas of each well in transmitted light-mode after which the same cells were immediately visualized and exposed to blue light from USH102 100W mercury arc burner (Ushio electric) installed in a U-ULS100HG housing (Olympus) for 20 sec. Fluorescence microscopy was performed on Olympus IX-70 inverted microscope with a LCPlanF1 ×20 objective with NA=0.40. […]

[3] = Liposome 90° light scattering, POPC liposomes; type: binding; conditions: pH 7.4
Excerpt: (§1) Thus, we investigated the interaction of Hsp70 with palmitoyl-oleoyl-phosphatidylcholine (POPC) large unilamellar vesicles (LUVs) containing various membrane-associated anionic lipids, i.e. palmitoyl-oleoyl-phosphatidylserine (POPS; primarily in plasma membrane), cardiolipin (primarily mitochondrial) and BMP (primarily in late endosomes/lysosomes). Taking into account the increasingly acidic milieu of the endo-lysosomal compartment upon maturation to lysosomes, we compared the protein-lipid interactions in neutral (pH 7.4) and acidic (pH 6.0) conditions. […] As reported earlier for POPS, all negatively charged lipids enhanced the binding of rHsp70 to the liposomes at neutral pH approximately 4-fold irrespective of the charge density on the liposome surface (ranging from −1 to −2).
(§2) The tryptophan fluorescence spectra (RFI) and liposome 90° light scattering (RSI) were analyzed in a HEPES buffer (20 mM HEPES, 0.1 mM EDTA, pH 7.4 or 6.0 as indicated) employing LUVs consisting of indicated lipids essentially as described in the art. For the RFI, LUVs were added in 10 μM aliquots and spectra recorded after a 20 min stabilization period. For the RSI, recombinant proteins were added in 0.12 nmol aliquots.

[4] = Liposome 90° light scattering, BMP; type: binding; conditions: pH 6.0 vs pH 7.4
Excerpt: as §1, §2

[5] = Liposome 90° light scattering, POPS; type: binding; conditions: pH 6.0 vs pH 7.4
Excerpt: as §1, §2

Substance: rHsp70: recombinant (human) heat shock protein 70; in some tests labelled with Alexa Fluor 488
- lysosomal cross-sectional area (primary cellular pathology) [1]: effectively reverts the lysosomal primary pathology
- Volume of Acidic Compartment (VAC) [2]: effectively reverts the lysosomal primary pathology
- translocation and accumulation of LC3-EGFP (marker for macroautophagy) (MCF-7-LC3-EGFP cells): leads to translocation and accumulation of LC3-EGFP
- protection of lysosomes against photo-oxidation (lysosomal stabilization) (U-2-OS cells; recombinant proteins 300 nM, 24 h): protected lysosomes against photo-oxidation
- reversal of Hsp70 siRNA-induced sensitization to photo-oxidation (U-2-OS cells; siRNA 48 h prior to addition of recombinant protein (300 nM)): fully reverted
- binding (relative change in 90° light scattering) [3]: very weak binding
- binding to BMP at acidic pH as compared to neutral pH [4]: ~20 times
- binding to POPS upon acidification [5]: only slightly increased
